Consider 23 molecules from patent US10568879B2 (GALAPAGOS NV, priority 2015, dated 2020).

Read-outs that look alike come from different tables or passages of the source.

For assay [1], the system named is human neutrophils. Description: Human neutrophil migration assay. It counts as cell-based. As to conditions: Homo sapiens, Neutrophil, read-out: Human neutrophil migration IC50. The protocol: The activity of GPR84 agonists and antagonists can therefore be assayed in a human neutrophil migration assay. The human neutrophil migration assay makes use of freshly isolated human neutrophils from buffy coats that are subsequently used in a functional chemotaxis assay setup. […] After 1 h of incubation at 37° C. and 5% CO2, the number of migrated neutrophils in the lower compartment can be quantified by measuring the ATP content using ATPlite™ Luminescence Assay System. A human buffy coat suspension is diluted with an equal volume of ice cold DPBS. 20 mL of the diluted buffy coat suspension is gently mixed with 4 mL of ACD buffer (140 mM citric acid, 200 mM sodium citrate and 220 mM dextrose). Then, 12 mL of a 6% dextran/0.9% NaCl solution (15 g dextran T2000 and 2.25 g NaCl dissolved in 250 mL H2O) is added to the mixture and the samples are inverted gently up to 20 times. The total volume is transferred to a new recipient and incubated at room temperature to allow sedimentation of red blood cells. The yellowish upper fraction is then transferred to a clean centrifugation tube and centrifuged for 12 min at 1300 rpm and 4° C. After centrifugation, the supernatant is discarded and the remaining cell pellet is rapidly resuspended in 12 mL of ice-cold H2O to perform a red blood cell lysis by osmotic burst. After 20 seconds, 4 mL of ice-cold 0.6 M KCl is added to restore salt concentration. Samples are mixed carefully and centrifuged for 6 min at 1300 rpm and 4° C. The supernatant is discarded and the red blood cell lysis procedure is repeated one more time. […] A neutrophil cell suspension of 8.9×10^6 cells per mL is prepared in chemotaxis buffer and 180 μL per well is plated in a 96-well V-bottom plate. 20 μL of test compound solution in chemotaxis buffer is added to the 180 μL cell suspension. The mixture is incubated at room temperature for 30 min with intermediate gentle resuspension of the cells after 15 min. […] After 1 h at 37° C., 5% CO2 in a humidified incubator, the upper plate of the Transwell® system is gently removed. […] After incubation, 270 μL of cell lysate is then transferred onto a white 96-well plate for quantification by a luminescence plate reader. The relative luminescent signal measured is considered linearly related to the number of cells having migrated from the upper compartment into the receiver well.

In assay [2] the target is T1, GPR84 (Homo sapiens, UniProt Q9NQS5).
T1 construct: expressed in transfected cells
T1 sequence (Q9NQS5 whole entry): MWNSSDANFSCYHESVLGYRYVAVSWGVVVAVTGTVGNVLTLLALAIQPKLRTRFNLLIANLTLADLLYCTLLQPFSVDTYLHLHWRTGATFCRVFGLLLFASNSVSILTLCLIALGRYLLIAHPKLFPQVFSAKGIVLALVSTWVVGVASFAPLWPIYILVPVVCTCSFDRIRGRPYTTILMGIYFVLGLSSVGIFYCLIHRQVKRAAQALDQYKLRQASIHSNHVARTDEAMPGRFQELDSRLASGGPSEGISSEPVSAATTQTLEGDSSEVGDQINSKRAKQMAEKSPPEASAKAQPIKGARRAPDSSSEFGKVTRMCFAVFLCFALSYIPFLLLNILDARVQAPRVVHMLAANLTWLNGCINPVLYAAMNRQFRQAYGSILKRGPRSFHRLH
Description: GPR84 [35S]GTPγS binding assay. Format: biochemical. Particulars: 3,3′-diindolylmethane at EC80; membranes from stable cell line over expressing GPR84. In a few lines: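 Antagonist-mode [35S]GTPγS binding on membranes from a GPR84-overexpressing stable line (GDP-preincubated), stimulated with 3,3′-diindolylmethane at EC80. Buffer 20 mM Tris pH 7.5, 5 mM MgCl2, 250 mM NaCl, saponin; 0.1 nM [35S]GTPγS, 90 min at room temperature, SPA bead read-out.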
On the technique in general: GTPγS is a poorly hydrolysed GTP analogue; its binding reports G protein activation.

[3] abbreviates: embelin at EC80 as chemotactic agent, 1 h at 37° C.

As to `Cc1c2n(c(OC[C@@H]3COCCO3)cc1=O)CCc1cc(C3=CCOCC3)ccc1-2` [Compound 39, 9-(3,6-dihydro-2H-pyran-4-yl)-4-[[(2S)-1,4-dioxan-2-yl]methoxy]-1-methyl-6,7-dihydrobenzo[a]quinolizin-2-one], the IC50 in assay [1] (setting [3]) lay within 0.01 to 100 nM; in assay [2], 100 to 500 nM.
For the molecule `CCn1cc(-c2ccc3c(c2)CCn2c(OC[C@@H]4COCCO4)cc(=O)c(C)c2-3)cn1` [Compound 40, 4-[[(2S)-1,4-dioxan-2-yl]methoxy]-9-(1-ethylpyrazol-4-yl)-1-methyl-6,7-dihydrobenzo[a]quinolizin-2-one], the IC50 in assay [1] (1 h) and in assay [2] was 0.01 to 100 nM throughout.
As for `Cc1c2n(c(OC[C@@H]3COCCO3)cc1=O)CCc1cc(C3CCOCC3)ccc1-2` [Compound 41, 4-[[(2S)-1,4-dioxan-2-yl]methoxy]-1-methyl-9-tetrahydropyran-4-yl-6,7-dihydrobenzo[a]quinolizin-2-one], the IC50 in assay [1] (setting [3]) and in assay [2] was 0.01 to 100 nM each time.
In the case of `Cc1c2n(c(NC[C@@H]3CCCO3)cc1=O)CCc1cc(OCC(F)(F)F)ccc1-2` [Compound 42, 1-methyl-4-[[(2S)-tetrahydrofuran-2-yl]methylamino]-9-(2,2,2-trifluoroethoxy)-6,7-dihydrobenzo[a]quinolizin-2-one], the IC50 in assay [1] (setting [3]) and in assay [2] was 0.01 to 100 nM each time.
For `Cc1noc(COc2ccc3c(c2)CCn2c(OCC4CCCO4)cc(=O)c(C)c2-3)n1` (stereo not shown) [Compound 43, 1-methyl-9-[(3-methyl-1,2,4-oxadiazol-5-yl)methoxy]-4-(tetrahydrofuran-2-ylmethoxy)-6,7-dihydrobenzo[a]quinolizin-2-one], the IC50 in assay [1] (setting [3]) and in assay [2] was 0.01 to 100 nM in each case.
As for `Cc1noc(COc2ccc3c(c2)CCn2c(OCC4CCCCO4)cc(=O)c(C)c2-3)n1` (stereo not shown) [Compound 44, 1-methyl-9-[(3-methyl-1,2,4-oxadiazol-5-yl)methoxy]-4-(tetrahydropyran-2-ylmethoxy)-6,7-dihydrobenzo[a]quinolizin-2-one], the IC50 in assay [1] (setting [3]) and in assay [2] was 0.01 to 100 nM throughout.
In the case of `Cc1c2n(c(OCC3CCCO3)cc1=O)CCc1cc(OCc3ccccn3)ccc1-2` (stereo not shown) [Compound 45, 1-methyl-9-(2-pyridylmethoxy)-4-(tetrahydrofuran-2-ylmethoxy)-6,7-dihydrobenzo[a]quinolizin-2-one], the figures for the IC50 in assay [1] (setting [3]) and in assay [2] were 100 to 500 nM and 0.01 to 100 nM, respectively.
As for `Cc1c2n(c(OCC3CCCCO3)cc1=O)CCc1cc(OCc3ccccn3)ccc1-2` (stereo not shown) [Compound 46, 1-methyl-9-(2-pyridylmethoxy)-4-(tetrahydropyran-2-ylmethoxy)-6,7-dihydrobenzo[a]quinolizin-2-one], the IC50 in assay [1] (setting [3]) and in assay [2] was 0.01 to 100 nM each time.
On to `Cc1c2n(c(OCC3CCCCO3)cc1=O)CCc1cc(OCC3CCCOC3)ccc1-2` (stereo not shown) [Compound 48, 1-methyl-4-(tetrahydropyran-2-ylmethoxy)-9-(tetrahydropyran-3-ylmethoxy)-6,7-dihydrobenzo[a]quinolizin-2-one], for which the IC50 in assay [1] (setting [3]) and in assay [2] was 0.01 to 100 nM in each case.
With `Cc1c2n(c(OC[C@@H]3COCCO3)cc1=O)CCc1cc(OCC3CCCOC3)ccc1-2` (stereo partly drawn) [Compound 49, 4-[[(2S)-1,4-dioxan-2-yl]methoxy]-1-methyl-9-(tetrahydropyran-3-ylmethoxy)-6,7-dihydrobenzo[a]quinolizin-2-one], the IC50 in assay [1] (setting [3]) and in assay [2] was 0.01 to 100 nM each time.
For `Cc1ccc(COc2ccc3c(c2)CCn2c(OCC4CCCO4)cc(=O)c(C)c2-3)cn1` (stereo not shown) [Compound 50, 1-methyl-9-[(6-methyl-3-pyridyl)methoxy]-4-(tetrahydrofuran-2-ylmethoxy)-6,7-dihydrobenzo[a]quinolizin-2-one], the IC50 in assay [1] (setting [3]) and in assay [2] was 0.01 to 100 nM each time.
Take `Cc1ccc(COc2ccc3c(c2)CCn2c(OCC4CCCCO4)cc(=O)c(C)c2-3)cn1` (stereo not shown) [Compound 51, 1-methyl-9-[(6-methyl-3-pyridyl)methoxy]-4-(tetrahydropyran-2-ylmethoxy)-6,7-dihydrobenzo[a]quinolizin-2-one]: the IC50 in assay [1] (setting [3]) and in assay [2] was 0.01 to 100 nM each time.
As to `Cc1noc(COc2ccc3c(c2)CCn2c(OC[C@@H]4COCCO4)cc(=O)c(C)c2-3)n1` [Compound 58, 4-[[(2S)-1,4-dioxan-2-yl]methoxy]-1-methyl-9-[(3-methyl-1,2,4-oxadiazol-5-yl)methoxy]-6,7-dihydrobenzo[a]quinolizin-2-one], the IC50 in assay [1] (setting [3]) and in assay [2] was 0.01 to 100 nM in each case.
For the molecule `Cc1c2n(c(OC[C@@H]3COCCO3)cc1=O)CCc1cc(OCC(F)F)ccc1-2` [Compound 61, 9-(2,2-difluoroethoxy)-4-[[(2S)-1,4-dioxan-2-yl]methoxy]-1-methyl-6,7-dihydrobenzo[a]quinolizin-2-one], the IC50 in assay [1] (setting [3]) and in assay [2] was 0.01 to 100 nM each time.
As for `Cc1c2n(c(OC[C@@H]3COCCO3)cc1=O)CCc1cc(N3CCOCC3)ccc1-2` [Compound 63, 4-[[(2S)-1,4-dioxan-2-yl]methoxy]-1-methyl-9-morpholino-6,7-dihydrobenzo[a]quinolizin-2-one], the IC50 in assay [1] (setting [3]) was in the range of 100 to 500 nM; in assay [2], 0.01 to 100 nM.
Turning to `Cc1c2n(c(OC[C@@H]3COCCO3)cc1=O)CCc1cc(N3CCC(F)(F)CC3)ccc1-2` [Compound 65, 9-(4,4-difluoro-1-piperidyl)-4-[[(2S)-1,4-dioxan-2-yl]methoxy]-1-methyl-6,7-dihydrobenzo[a]quinolizin-2-one], the IC50 in assay [1] (setting [3]) and in assay [2] was 0.01 to 100 nM throughout.
With `Cc1c2n(c(OC[C@@H]3COCCO3)cc1=O)CCc1cc(N3CCN(C(=O)C4CC4)CC3)ccc1-2` [Compound 69, 9-[4-(cyclopropanecarbonyl)piperazin-1-yl]-4-[[(2S)-1,4-dioxan-2-yl]methoxy]-1-methyl-6,7-dihydrobenzo[a]quinolizin-2-one], the IC50 in assay [1] (setting [3]) and in assay [2] was 0.01 to 100 nM each time.
For `Cc1c2n(c(OC[C@@H]3COCCO3)cc1=O)CCc1cc(NC(=O)C3CC3)ccc1-2` [Compound 70, N-[4-[[(2S)-1,4-dioxan-2-yl]methoxy]-1-methyl-2-oxo-6,7-dihydrobenzo[a]quinolizin-9-yl]cyclopropanecarboxamide], the IC50 in assay [1] (setting [3]) and in assay [2] was 0.01 to 100 nM in each case.
As to `COC(=O)N1CC=C(c2ccc3c(c2)CCn2c(OC[C@@H]4COCCO4)cc(=O)c(C)c2-3)CC1` [Compound 76, methyl 4-[4-[[(2S)-1,4-dioxan-2-yl]methoxy]-1-methyl-2-oxo-6,7-dihydrobenzo[a]quinolizin-9-yl]-3,6-dihydro-2H-pyridine-1-carboxylate], the IC50 in assay [1] (setting [3]) and in assay [2] was 0.01 to 100 nM in each case.
Regarding `CCOC(=O)N1CC=C(c2ccc3c(c2)CCn2c(OC[C@@H]4COCCO4)cc(=O)c(C)c2-3)CC1` [Compound 77, ethyl 4-[4-[[(2S)-1,4-dioxan-2-yl]methoxy]-1-methyl-2-oxo-6,7-dihydrobenzo[a]quinolizin-9-yl]-3,6-dihydro-2H-pyridine-1-carboxylate], the IC50 in assay [1] (setting [3]) and in assay [2] was 0.01 to 100 nM each time.
Regarding `Cc1c2n(c(OC[C@@H]3COCCO3)cc1=O)CCc1cc(C3=CCN(C(=O)OC(C)C)CC3)ccc1-2` [Compound 78, isopropyl 4-[4-[[(2S)-1,4-dioxan-2-yl]methoxy]-1-methyl-2-oxo-6,7-dihydrobenzo[a]quinolizin-9-yl]-3,6-dihydro-2H-pyridine-1-carboxylate], the IC50 in assay [1] (setting [3]) and in assay [2] was 0.01 to 100 nM throughout.
On to `Cc1c2n(c(OC[C@@H]3COCCO3)cc1=O)CCc1cc(C3=CCN(C(=O)OCC(F)(F)F)CC3)ccc1-2` [Compound 79, 2,2,2-trifluoroethyl 4-[4-[[(2S)-1,4-dioxan-2-yl]methoxy]-1-methyl-2-oxo-6,7-dihydrobenzo[a]quinolizin-9-yl]-3,6-dihydro-2H-pyridine-1-carboxylate], for which the IC50 in assay [1] (setting [3]) and in assay [2] was 0.01 to 100 nM each time.
As to `COC(=O)N1CCC(c2ccc3c(c2)CCn2c(OC[C@@H]4COCCO4)cc(=O)c(C)c2-3)CC1` [Compound 80, methyl 4-[4-[[(2S)-1,4-dioxan-2-yl]methoxy]-1-methyl-2-oxo-6,7-dihydrobenzo[a]quinolizin-9-yl]piperidine-1-carboxylate], the IC50 in assay [1] (setting [3]) and in assay [2] was 0.01 to 100 nM throughout.
